In ChEMBL document CHEMBL1124941, “Assessment of the in vivo and in vitro opioid activity of bridged hexahydroaporphine and isoquinoline molecules” (J Med Chem, 1990):

How the values were obtained:
Mus musculus = species: Mus musculus; test: Effective dose required for antinociceptive activity in mouse; type: functional
Opioid receptor [1] = molecular target: T1, Opioid receptor (Rattus norvegicus, UniProt P33533+P34975+P33535); type: tissue-based, Brain
Description: Concentration that produces 50% inhibition of stereospecific [3H]naloxone binding to opioid receptors in rat brain in presence of sodium.

Opioid receptor [2] = molecular target: T1, Opioid receptor; type: tissue-based, Brain; remark: listed apart in the source
Description: Concentration that produces 50% inhibition of stereospecific [3H]naloxone binding to opioid receptors in rat brain in absence of sodium.

SMILES | ED50 (Mus musculus) [µg] | IC50 (Opioid receptor [1]) [µM] | IC50 (Opioid receptor [2]) [µM]
COc1ccc2c(c1)C1CCC3CCC14C3CCN(C)C4C2.Cl (stereo not given) | 5.42 |  | 
CN1CCC2C3CCC4c5cc(O)ccc5CC1C42CC3.Cl (stereo not given) | 4.07 | 5.59 | 0.472
CN1CC[C@]23c4c5ccc(O)c4O[C@H]2[C@@H](O)C=C[C@H]3[C@H]1C5.CN1CC[C@]23c4c5ccc(O)c4O[C@H]2[C@@H](O)C=C[C@H]3[C@H]1C5.O=S(=O)(O)O | 0.0794 |  | 
